The source of these data is US9896457B2, “Microbial product having antifungal activity” (OP BIO FACTORY CO., LTD., priority 2013, dated 2018).

One test deals with Aspergillus spp. The test can be described thus: Antifungal agent sensitivity test, MIC by trace liquid dilution method (yeast-like fungi FP 'Eiken'). In kind it is cell-based. To be noted: numeric MIC (μg/mL) only in FIG. 2. As for the experimental part:
(§1) Minimum inhibitory concentration (MIC) was measured by the trace liquid dilution method. The measurement was performed using yeast-like fungi FP ‘Eiken’ (Eiken Chemical Co., Ltd.) and according to the manual of the product.

In another test the test system is Candida spp. The test is described as above. It counts as cell-based. Particulars: numeric MIC (μg/mL) only in FIG. 2. As for the experimental part:
as §1

On to `CC=C(Cc1ccccc1)C12CC(O)CCN1O2` (centres unmarked), for which the “antifungal activity (MIC), result in words” value in the test on Aspergillus spp. and with Candida spp. was “good activity” throughout.
